Assay results taken from PubChem BioAssay AID1963962 (Molecular Pharmacology Branch, DTP, NCI, 2024).

System: 967376-340-R-J2-PDC multicell spheroid viability
Experiment: Anticancer human tumor 967376-340-R-J2-PDC patient-derived colon adenocarcinoma cell line growth inhibition [PI3K]
Conditions: for IC50: curve of first compound; for viability, T/C: stronger effect = lower value
Description: Combinatorial screen of targeted agents with the PI3K inhibitors inavolisib, alpelisib, duvelisib, and copanlisib in multi-cell type tumor spheroids
A high-throughput screen of multi-cell type tumor spheroids was designed to identify active combinations of targeted small molecules and PI3K pathway inhibitors. Complex spheroids include a stromal component modeled by human endothelial cells (HUVEC) and fibroblasts modeled by human mesenchymal stem cells (MSCs). The concentration ranges selected for each drug and investigational agent were based upon clinically achievable concentrations if the clinical Cmax of the agent was known.
Compounds. The drugs and investigational agents: inavolisib (NSC800729), alpelisib (NSC765974), duvelisib (NSC772469), copanlisib (NSC816437), ipatasertib (NSC767898), afuresertib (NSC778305), talazoparib (NSC767125), sapanisertib (NSC764658), selumetinib (NSC741078), tovorafenib (DAY101, NSC766906), vemurafenib (NSC761431), ravoxertinib (NSC781343), sotorasib (NSC818433), MRTX1133 (NSC 836407), abemaciclib (NSC 768073), palbociclib (NSC758247), venetoclax (NSC 766270), SY5609 (NSC837396), enzalutamide (NSC755605), and darolutamide (NSC825331), were obtained from the National Cancer Institute (NCI) Developmental Therapeutics Program Chemical Repository. The FDA-approved anticancer drug set is available from the NCI Developmental Therapeutics Program. […] The stock solutions were prepared in dimethyl sulfoxide (DMSO, Sigma-Aldrich, St. Louis, MO, cat. D2650) at 800-fold the tested concentration and stored at -70 degrees C prior to their use. All drugs and investigational agents were tested over a range starting from a high concentration at or near the clinical Cmax and decreasing in half-log increments. If the clinical Cmax for an agent had not been determined, the highest concentration tested was 10 microM.
Cell Culture. All cells were maintained in an incubator at 37 degrees C and 5% CO2 with 95% humidity. The PDC lines were cultured according to standard operating procedures established by the NCI PDMR (https://pdmr.cancer.gov/sops/default.htm). All PDCs were thawed and cultured in Matrigel-coated flasks prepared with a working solution of 1X Ham's F-12 nutrient mix, without supplementation (Invitrogen, Waltham, MA, cat. 11765054), 100 U/mL penicillin-streptomycin (Invitrogen, cat. 15140122), and 2.5% Matrigel (Corning Inc., Corning, NY, cat. 354248) for the first three passages. The 354836-022-R-J1-PDC, 475296-252-R-J1-PDC, and 997726-040-R-J2-PDC lines were cultured in 6A media, which includes advanced DMEM/F-12 (Thermo Fisher Scientific, cat. 12634028), 10 mM HEPES (Thermo Fisher Scientific, cat. 15630080), 1X GlutaMAX supplement (Thermo Fisher Scientific, cat. 35050061), 0.1 mg/mL primocin (InvivoGen, San Diego, CA, cat. ant-pm-2), 10% defined fetal bovine serum, heat inactivated (HyClone Laboratories Inc., Logan, UT, cat. SH30070.03HI), 50% L-WRN conditioned media (ATCC, cat. CRL-3276), 1.25 mM N-Acetyl-L-cysteine (Sigma-Aldrich, cat. A9165), 10 mM nicotinamide (Sigma-Aldrich, cat. N0636), 1X B-27 supplement (Thermo Fisher Scientific, cat. 17504044), 1X N-2 supplement (Thermo Fisher Scientific, cat. 17502048), and 10 microM Y-27632 dihydrochloride (Tocris Bioscience, Bristol, United Kingdom, cat. 1254). The 624824-186-R-J2-PDC line was cultured in 6C/Colon 1B media, which includes all 6A media components plus 50 ng/mL human EGF recombinant protein (Thermo Fisher Scientific, cat. PHG0311). […]

[1] = second compound 0.0316 µM, first compound 0.0316 µM
[2] = second compound 0.0316 µM, first compound 0.1 µM
[3] = second compound 0.0316 µM, first compound 0.316 µM
[4] = second compound 0.0316 µM, first compound 1 µM
[5] = second compound 0.0316 µM, first compound 3.16 µM
[6] = second compound 0.0316 µM, first compound 10 µM
[7] = second compound 0.1 µM, first compound 0.0316 µM
[8] = second compound 0.1 µM, first compound 0.1 µM
[9] = second compound 0.1 µM, first compound 0.316 µM
[10] = second compound 0.1 µM, first compound 1 µM
[11] = second compound 0.1 µM, first compound 3.16 µM
[12] = second compound 0.1 µM, first compound 10 µM
[13] = second compound 0.316 µM, first compound 0.0316 µM
[14] = second compound 0.316 µM, first compound 0.1 µM
[15] = second compound 0.316 µM, first compound 0.316 µM
[16] = second compound 0.316 µM, first compound 1 µM
[17] = second compound 0.316 µM, first compound 3.16 µM
[18] = second compound 0.316 µM, first compound 10 µM
[19] = second compound 1 µM, first compound 0.0316 µM
[20] = second compound 1 µM, first compound 0.1 µM
[21] = second compound 1 µM, first compound 0.316 µM
[22] = second compound 1 µM, first compound 1 µM
[23] = second compound 1 µM, first compound 3.16 µM
[24] = second compound 1 µM, first compound 10 µM
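Further: spheroids exposed to agents for 7 days before read-out.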
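Wherever viability, T/C is given: luminescence used as surrogate of cell viability.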

C#Cc1c(F)ccc2cc(O)cc(-c3ncc4c(N5CC6CCC(C5)N6)nc(OCC56CCCN5CC(F)C6)nc4c3F)c12 (centres undefined) + Cc1nc(NC(=O)N2CCCC2C(N)=O)sc1-c1ccnc(C(C)(C)C(F)(F)F)c1
IC50 (second compound 0.0316 µM): > 10 µM | IC50 (second compound 0.1 µM): > 10 µM | IC50 (second compound 0.316 µM): 9.86 µM | IC50 (second compound 1 µM): 5.16 µM | IC50 (second compound 3.16 µM): 3.53 µM | IC50 (second compound 10 µM): < 0.0316 µM | viability, T/C [1]: 104% | viability, T/C [2]: 85.6% | viability, T/C [3]: 81.8% | viability, T/C [4]: 82.7% | viability, T/C [5]: 80.7% | viability, T/C [6]: 68% | viability, T/C [7]: 103% | viability, T/C [8]: 81.7% | viability, T/C [9]: 82.3% | viability, T/C [10]: 70.4% | viability, T/C [11]: 80.8% | viability, T/C [12]: 69.6% | viability, T/C [13]: 64.3% | viability, T/C [14]: 90% | viability, T/C [15]: 74.5% | viability, T/C [16]: 69.8% | viability, T/C [17]: 78.5% | viability, T/C [18]: 49.8% | viability, T/C [19]: 65.1% | viability, T/C [20]: 68.3% | viability, T/C [21]: 72.5% | viability, T/C [22]: 66.8% | viability, T/C [23]: 60.3% | viability, T/C [24]: 35.5% | viability, T/C (second compound 3.16 µM, first compound 0.0316 µM): 47.6% | viability, T/C (second compound 3.16 µM, first compound 0.1 µM): 75.2% | viability, T/C (second compound 3.16 µM, first compound 0.316 µM): 59% | viability, T/C (second compound 3.16 µM, first compound 1 µM): 59.5% | viability, T/C (second compound 3.16 µM, first compound 3.16 µM): 49.3% | viability, T/C (second compound 3.16 µM, first compound 10 µM): 34.9% | viability, T/C (second compound 10 µM, first compound 0.0316 µM): 47.2% | viability, T/C (second compound 10 µM, first compound 0.1 µM): 41.7% | viability, T/C (second compound 10 µM, first compound 0.316 µM): 51.5% | viability, T/C (second compound 10 µM, first compound 1 µM): 37.3% | viability, T/C (second compound 10 µM, first compound 3.16 µM): 36.1% | viability, T/C (second compound 10 µM, first compound 10 µM): 16.9%

Cn1ncc(Cl)c1-c1cc(C(=O)NC(CN)Cc2cccc(F)c2)sc1Cl (centres undefined) + CC(Nc1ccc2c(c1)OCCn1cc(N3C(=O)OCC3C(F)F)nc1-2)C(N)=O
IC50 (second compound 0.00316 µM): > 10 µM | IC50 (second compound 0.01 µM): > 10 µM | IC50 (second compound 0.0316 µM): > 10 µM | IC50 (second compound 0.1 µM): > 10 µM | IC50 (second compound 0.316 µM): > 10 µM | IC50 (second compound 1 µM): 4.19 µM | viability, T/C (second compound 0.00316 µM, first compound 0.0316 µM): 102% | viability, T/C (second compound 0.00316 µM, first compound 0.1 µM): 94.4% | viability, T/C (second compound 0.00316 µM, first compound 0.316 µM): 86.6% | viability, T/C (second compound 0.00316 µM, first compound 1 µM): 75% | viability, T/C (second compound 0.00316 µM, first compound 3.16 µM): 71% | viability, T/C (second compound 0.00316 µM, first compound 10 µM): 61.3% | viability, T/C (second compound 0.01 µM, first compound 0.0316 µM): 92.3% | viability, T/C (second compound 0.01 µM, first compound 0.1 µM): 93.3% | viability, T/C (second compound 0.01 µM, first compound 0.316 µM): 90.8% | viability, T/C (second compound 0.01 µM, first compound 1 µM): 67.1% | viability, T/C (second compound 0.01 µM, first compound 3.16 µM): 67.8% | viability, T/C (second compound 0.01 µM, first compound 10 µM): 71.3% | viability, T/C [1]: 91.2% | viability, T/C [2]: 98% | viability, T/C [3]: 75.2% | viability, T/C [4]: 83.2% | viability, T/C [5]: 67.4% | viability, T/C [6]: 55.8% | viability, T/C [7]: 83.5% | viability, T/C [8]: 72.5% | viability, T/C [9]: 87.7% | viability, T/C [10]: 65% | viability, T/C [11]: 55.8% | viability, T/C [12]: 57.8% | viability, T/C [13]: 68% | viability, T/C [14]: 66.9% | viability, T/C [15]: 59.2% | viability, T/C [16]: 67.8% | viability, T/C [17]: 59.9% | viability, T/C [18]: 45.9% | viability, T/C [19]: 63.1% | viability, T/C [20]: 49.3% | viability, T/C [21]: 53.9% | viability, T/C [22]: 68.1% | viability, T/C [23]: 53.9% | viability, T/C [24]: 38.5%
